Source: patent US20040028714A1, “Composition having insect repellent characteristics” (priority 2000, published 2004)
“And” between values parts separate entries of the source, which are not always exact repeats. Identical values can stand only once.

Test system: Black Ants (Ochetellus sp)
Experiment: Ant repellency on half-treated formica (Example 4)
Assay type: in vivo
Settings: 20 mg/m^2 on formica; for Number of Black Ants present, Treated Section / Number of Black Ants present, Untreated Section / Number of Black Ants, Dead: single replicates (n = 20); for Number of Black Ants present, Treated Section, Total / Number of Black Ants present, Untreated Section, Total / Number of Black Ants, Dead, Total: total of 4 replicates (80)
Experimental: The effectiveness of compound 2 (example 1) as an insect repellent was determined using ants exposed to a formica surface partially treated/partially untreated with compound 2, and was directly compared to the repellency of the well known insect repellents Farnesol and Dihydrofarnesal.
The study was conducted in an air conditioned laboratory at a temperature of 22°±2° C. under a normal day/night cycle, using Black Ants (Ochetellus sp) of mixed sex and age. The study ws conducted over a 3 day period and the repellent effectiveness assessed 1, 2 and 3 days after ant introduction.
One half of a rectangle of formica 40 cm×30 cm was treated at 20 mg/m^2 with the test compounds. This was achieved by soaking a paper wipe (Rag On A Roll approximately 20 cm×20 cm) in a solution of the test compound in ethanol, squeezing out the excess liquid and wiping over the surface to give the required coverage. This was checked by weighing the cloth after application. The surface was allowed to dry. The other half was wiped with ethanol alone (untreated surface).
The treated formica rectangle was placed on the bench and a glass ring (diameter 20 cm) was placed on the rectangle. This had been treated with fluon to prevent ant escape.
A small plastic container 2 cm in diameter was placed on the formica, one on the treated surface and one on the untreated surface. The plastic container placed on the treated surface had repellent applied in the same way as the treated formica. The plastic container on the untreated surface was wiped with ethanol.
24 hours after treatment (1 day) 20 ants were added to the centre of the formica. No food and water was supplied for these ants. 2 hours after this the number of ants on the treated and untreated surfaces was counted.
The above was repeated 3 times to provide a total of 4 replicates.
The above was repeated at 2 days and 3 days. New ants were used at each time period.

[1] = ants, average of days 1, 2 and 3

CCNC(=O)C1CC(C)CCC1C(C)C (stereo not shown) [Compound 2, N-ethyl-p-menthane-3-carboxamide]
ant repellency (in words) (1, 2 and 3 days after treatment): superior to these two products | Number of Black Ants present, Treated Section (day 1): 0 (2×) and 2 and 1 | Number of Black Ants present, Untreated Section (day 1): 20 (2×) and 18 and 19 | Number of Black Ants, Dead (day 1): 0 | Number of Black Ants present, Treated Section, Total (day 1): 3 | Number of Black Ants present, Untreated Section, Total (day 1): 77 | Number of Black Ants, Dead, Total (day 1): 0 | Number of Black Ants present, Treated Section (day 2): 1 and 3 (2×) and 2 | Number of Black Ants present, Untreated Section (day 2): 19 and 17 (2×) and 18 | Number of Black Ants, Dead (day 2): 0 | Number of Black Ants present, Treated Section, Total (day 2): 9 | Number of Black Ants present, Untreated Section, Total (day 2): 71 | Number of Black Ants, Dead, Total (day 2): 0 | Number of Black Ants present, Treated Section (day 3): 0 and 1 and 2 and 3 | Number of Black Ants present, Untreated Section (day 3): 20 and 19 and 18 and 17 | Number of Black Ants, Dead (day 3): 0 | Number of Black Ants present, Treated Section, Total (day 3): 6 | Number of Black Ants present, Untreated Section, Total (day 3): 74 | Number of Black Ants, Dead, Total (day 3): 0 | Percentage Dead (ants, 1 day after treatment): 0% | Percentage Present, Treated Section (ants, 1 day after treatment): 3.7% | Percentage Present, Untreated Section (ants, 1 day after treatment): 96.3% | Percentage Dead (ants, 2 days after treatment): 0% | Percentage Present, Treated Section (ants, 2 days after treatment): 11.2% | Percentage Present, Untreated Section (ants, 2 days after treatment): 88.8% | Percentage Dead (ants, 3 days after treatment): 0% | Percentage Present, Treated Section (ants, 3 days after treatment): 7.5% | Percentage Present, Untreated Section (ants, 3 days after treatment): 92.5% | Percentage Dead, Average [1]: 0% | Percentage Present, Treated Section, Average [1]: 7.5% | Percentage Present, Untreated Section, Average [1]: 92.5%
